Results on 15 compounds are retold here after patent US20240409585A1, “MACROCYCLIC IMMUNOMODULATORS” (priority 2021, published 2024).

Bridge positions count the residues as written; N and C are the ends. Square brackets hold non-standard residues; d marks the D form. Peptide text beside a SMILES is read from it. * marks the point of attachment. ξ: configuration not given here. Phe(4-COOH) = N[C@@H](Cc1ccc(C(=O)O)cc1)C(=O)O; Asp(3,3-Me2) = CC(C)(C(=O)O)[C@H](N)C(=O)O; Bip = N[C@@H](Cc1ccc(-c2ccccc2)cc1)C(=O)O; Phe(3-Cl) = N[C@@H](Cc1cccc(Cl)c1)C(=O)O; Phe(3-Me) = Cc1cccc(C[C@H](N)C(=O)O)c1; Val(3-OH) = CC(C)(O)[C@H](N)C(=O)O; aIle = CC[C@@H](C)[C@H](N)C(=O)O; 3Pal = N[C@@H](Cc1cccnc1)C(=O)O; Cha = N[C@@H](CC1CCCCC1)C(=O)O; Cit = NC(=O)NCCC[C@H](N)C(=O)O; Ile(3ξ) = CCC(C)[C@H](N)C(=O)O; Thr(3ξ) = CC(O)[C@H](N)C(=O)O; Carboxymethyl = O=C(O)C*; NMeA = CN[C@@H](C)C(=O)O; Dab = NCC[C@H](N)C(=O)O; Dap = NC[C@H](N)C(=O)O; ξV = CC(C)C(N)C(=O)O

T1 sequence (Q15116 25-288): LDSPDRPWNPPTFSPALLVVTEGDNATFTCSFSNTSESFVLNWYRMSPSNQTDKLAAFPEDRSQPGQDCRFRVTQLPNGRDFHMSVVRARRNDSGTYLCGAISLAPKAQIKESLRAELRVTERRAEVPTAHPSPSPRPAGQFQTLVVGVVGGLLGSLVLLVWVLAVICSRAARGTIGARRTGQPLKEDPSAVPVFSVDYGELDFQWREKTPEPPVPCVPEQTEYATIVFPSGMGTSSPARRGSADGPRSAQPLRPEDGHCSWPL

The assay addresses T1, PE-labeled human PD-L1-Ig binding to Jurkat cell line over-expressing human PD-1 (Jurkat-PD-1) (Homo sapiens, UniProt Q15116).
T1 construct: expressed in transfected cells; host or cells: Jurkat
Put plainly: Jurkat-PD-1 Cell Binding High-Content Screening Assay (CBA): Method 1. The conditions noted are these: Jurkat-hPD-1 cells, PE-labeled PD-L1-Ig 20 nM final; read-out: Jurkat HPDL1 PD1 IC50 (uM) (Method 1).
For `CCC(C)[C@@H]1NC(=O)[C@H](Cc2ccc(-c3ccccc3)cc2)NC(=O)[C@H](C(C)C)NC(=O)[C@H](Cc2c[nH]c3ccccc23)NC(=O)[C@H](CC(=O)O)NC(=O)[C@H](Cc2ccc(O)cc2)NC(=O)[C@H](CC(N)=O)NC(=O)CSC[C@@H](C(=O)N[C@@H](CC(=O)O)C(=O)N[C@@H](CCN)C(=O)O)NC(=O)[C@H](C(C)O)NC(=O)[C@H](C(C)C)NC(=O)[C@H](CC2CCCCC2)NC(=O)[C@H](CC(N)=O)NC(=O)[C@@H](CC(C)C)NC(=O)[C@H](C)N(C)C1=O` (stereo partly drawn) [Compound 2002] ({CH2CO}-NYDWV[Bip][Ile(3ξ)][NMeA][dL]N[Cha]V[Thr(3ξ)]CD[Dab]-OH; thioether N-14), the 50% inhibitory concentration (IC50) (as a rule, the concentration needed to halve the response being measured) turned out to be 0.14 µM.
As to `CC(C)C[C@@H]1NC(=O)[C@H](Cc2c[nH]c3ccccc23)NC(=O)[C@H](CC(=O)O)NC(=O)[C@H](Cc2ccc(OCC(=O)O)cc2)NC(=O)[C@H](Cc2ccccc2)NC(=O)CSC[C@@H](C(=O)N[C@@H](CC(N)=O)C(N)=O)NC(=O)[C@H](Cc2cnc[nH]2)NC(=O)[C@H](C(C)C)NC(=O)[C@H](CC(C)C)NC(=O)[C@H](CCN)NC(=O)[C@@H](CC(C)C)NC(=O)[C@H](C)N(C)C(=O)[C@H](C(C)C)NC(=O)[C@H](Cc2ccc(-c3ccccc3)cc2)NC1=O` [Compound 2098] ({CH2CO}-FY(Carboxymethyl)DWL[Bip]V[NMeA][dL][Dab]LVHCN-NH2; thioether N-14), the IC50 was 0.01 µM.
As for `CC(C)C[C@@H]1NC(=O)[C@H](CCCNC(=N)N)NC(=O)[C@@H](CC(C)C)NC(=O)[C@H](C)N(C)C(=O)[C@H](CCCNC(=N)N)NC(=O)[C@H](Cc2ccc(-c3ccccc3)cc2)NC(=O)[C@H](C(C)C)NC(=O)[C@H](Cc2c[nH]c3ccccc23)NC(=O)[C@H](CC(=O)O)NC(=O)[C@H](Cc2ccc(OCC(=O)O)cc2)NC(=O)[C@H](Cc2cccnc2)NC(=O)CSC[C@@H](C(=O)N[C@@H](C)C(N)=O)NC(=O)[C@H]([C@@H](C)O)NC(=O)[C@H](C(C)C)NC1=O` [Compound 1110] ({CH2CO}-[3Pal]Y(Carboxymethyl)DWV[Bip]R[NMeA][dL]RLVTCA-NH2; thioether N-14), the IC50 came out at 0.04 µM.
For `CC(C)C[C@@H]1NC(=O)[C@H](Cc2c[nH]c3ccccc23)NC(=O)[C@H](CC(=O)O)NC(=O)[C@H](Cc2ccc(O)cc2)NC(=O)[C@H](Cc2ccccc2)NC(=O)CSC[C@@H](C(=O)N[C@@H](C)C(N)=O)NC(=O)[C@H](CO)NC(=O)[C@H](C(C)C)NC(=O)[C@H](CC(C)C)NC(=O)[C@H](CC(N)=O)NC(=O)[C@@H](C)NC(=O)[C@H](C)N(C)C(=O)[C@H](CCCNC(=N)N)NC(=O)[C@H](Cc2ccc(-c3ccccc3)cc2)NC1=O` [Compound 1781] ({CH2CO}-FYDWL[Bip]R[NMeA][dA]NLVSCA-NH2; thioether N-14), the IC50 worked out at 0.08 µM.
Turning to `CC[C@@H](C)[C@@H]1NC(=O)[C@H](Cc2ccc(-c3ccccc3)cc2)NC(=O)[C@H](Cc2cnc[nH]2)NC(=O)[C@H](Cc2c[nH]c3ccccc23)NC(=O)[C@H](CC(=O)O)NC(=O)[C@H](Cc2ccc(C(=O)O)cc2)NC(=O)[C@H](Cc2ccc(OCC(=O)O)cc2)NC(=O)CSC[C@@H](C(=O)N[C@@H](CCCCN)C(N)=O)NC(=O)[C@H](CO)NC(=O)C(C(C)C)NC(=O)[C@H](CC(C)C)NC(=O)[C@H](CC(N)=O)NC(=O)[C@@H](CC(C)C)NC(=O)[C@H](C)N(C)C1=O` (stereo partly drawn) [Compound 2101] ({CH2CO}-Y(Carboxymethyl)[Phe(4-COOH)]DWH[Bip][aIle][NMeA][dL]NL[ξV]SCK-NH2; thioether N-14), the IC50 is 0.11 µM.
In the case of `Cc1cccc(C[C@@H]2NC(=O)[C@H](CC(=O)O)NC(=O)[C@H](Cc3ccc(OCC(=O)O)cc3)NC(=O)[C@H](CCN)NC(=O)CSC[C@@H](C(=O)N[C@H](C(N)=O)C(C)(C)C(=O)O)NC(=O)[C@H](CO)NC(=O)[C@H](C(C)(C)O)NC(=O)[C@H](CC3CCCCC3)NC(=O)[C@H](CCN)NC(=O)[C@@H](CC(C)C)NC(=O)[C@H](C)N(C)C(=O)[C@H](Cc3ccc(OCC(=O)O)cc3)NC(=O)[C@H](Cc3ccc(-c4ccccc4)cc3)NC(=O)[C@H](Cc3ccc(OCC(=O)O)cc3)NC2=O)c1` [Compound 1847] ({CH2CO}-[Dab]Y(Carboxymethyl)D[Phe(3-Me)]Y(Carboxymethyl)[Bip]Y(Carboxymethyl)[NMeA][dL][Dab][Cha][Val(3-OH)]SC[Asp(3,3-Me2)]-NH2; thioether N-14), the IC50 worked out at 0.7 µM.
`CCC(C)[C@@H]1NC(=O)[C@H](Cc2ccc(-c3ccccc3)cc2)NC(=O)[C@H](C(C)C)NC(=O)[C@H](Cc2cccc(C)c2)NC(=O)[C@H](CC(=O)O)NC(=O)[C@H](Cc2ccc(OCC(=O)O)cc2)NC(=O)[C@H](C(C)O)NC(=O)CSC[C@@H](C(=O)N[C@@H](CO)C(=O)O)NC(=O)[C@H](C(C)O)NC(=O)[C@H](C(C)C)NC(=O)[C@H](CC2CCCCC2)NC(=O)[C@H](CCN)NC(=O)[C@@H](CC(C)C)NC(=O)[C@H](C)N(C)C1=O` (stereo partly drawn) [Compound 2232] ({CH2CO}-[Thr(3ξ)]Y(Carboxymethyl)D[Phe(3-Me)]V[Bip][Ile(3ξ)][NMeA][dL][Dab][Cha]V[Thr(3ξ)]CS-OH; thioether N-14): the IC50 amounted to 0.01 µM.
Consider `CC(C)C[C@@H]1NC(=O)[C@H](CCCCN)NC(=O)[C@@H](CC(C)C)NC(=O)[C@H](C)N(C)C(=O)[C@H](Cc2cnc[nH]2)NC(=O)[C@H](Cc2ccc(-c3ccccc3)cc2)NC(=O)[C@H](C(C)C)NC(=O)[C@H](Cc2c[nH]c3ccccc23)NC(=O)[C@H](CC(=O)O)NC(=O)[C@H](Cc2ccc(O)cc2)NC(=O)[C@H](CC(N)=O)NC(=O)CSC[C@@H](C(=O)N[C@@H](C)C(N)=O)NC(=O)[C@H]([C@@H](C)O)NC(=O)[C@H](C(C)C)NC1=O` [Compound 1481] ({CH2CO}-NYDWV[Bip]H[NMeA][dL]KLVTCA-NH2; thioether N-14), for which the IC50 is 0.12 µM.
On to `CC(C)C[C@@H]1NC(=O)[C@H](CCCNC(=N)N)NC(=O)[C@@H](Cc2ccccc2)NC(=O)[C@H](C)N(C)C(=O)[C@H](CCCNC(=N)N)NC(=O)[C@H](Cc2ccc(-c3ccccc3)cc2)NC(=O)[C@H](C(C)C)NC(=O)[C@H](Cc2c[nH]c3ccccc23)NC(=O)[C@H](CC(=O)O)NC(=O)[C@H](Cc2ccc(O)cc2)NC(=O)[C@H](CC(N)=O)NC(=O)CSC[C@@H](C(=O)N[C@@H](C)C(N)=O)NC(=O)[C@H](CO)NC(=O)[C@H](C(C)C)NC1=O` [Compound 1042] ({CH2CO}-NYDWV[Bip]R[NMeA][dF]RLVSCA-NH2; thioether N-14), for which the IC50 came out at 0.04 µM.
In the case of `CC(C)C[C@@H]1NC(=O)[C@H](CCN)NC(=O)[C@@H](CC(C)C)NC(=O)[C@H](C)N(C)C(=O)[C@H](CO)NC(=O)[C@H](Cc2ccc(-c3ccccc3)cc2)NC(=O)[C@H](C(C)C)NC(=O)[C@H](Cc2c[nH]c3ccccc23)NC(=O)[C@H](CC(=O)O)NC(=O)[C@H](Cc2ccc(O)cc2)NC(=O)[C@H](CC(N)=O)NC(=O)CSC[C@@H](C(=O)N[C@@H](C)C(N)=O)NC(=O)[C@H]([C@@H](C)O)NC(=O)[C@H](C(C)C)NC1=O` [Compound 1261] ({CH2CO}-NYDWV[Bip]S[NMeA][dL][Dab]LVTCA-NH2; thioether N-14), the IC50 came out at 0.08 µM.
Then `Cc1cccc(C[C@@H]2NC(=O)[C@H](CC(=O)O)NC(=O)[C@H](Cc3ccc(O)cc3)NC(=O)[C@H](CC(N)=O)NC(=O)CSC[C@@H](C(=O)N[C@@H](C)C(N)=O)NC(=O)[C@H]([C@@H](C)O)NC(=O)[C@H](C(C)C)NC(=O)[C@H](CC(C)C)NC(=O)[C@H](CCN)NC(=O)[C@@H](CC(C)C)NC(=O)[C@H](C)N(C)C(=O)[C@H](CCCNC(N)=O)NC(=O)[C@H](Cc3ccc(-c4ccccc4)cc3)NC(=O)[C@H](C(C)C)NC2=O)c1` [Compound 1230] ({CH2CO}-NYD[Phe(3-Me)]V[Bip][Cit][NMeA][dL][Dab]LVTCA-NH2; thioether N-14), with 0.01 µM.
As for `CC(C)C[C@@H]1NC(=O)[C@H](CCN)NC(=O)[C@@H](CC(C)C)NC(=O)[C@H](C)N(C)C(=O)[C@H](CCCNC(=N)N)NC(=O)[C@H](Cc2ccc(-c3ccccc3)cc2)NC(=O)[C@H](C(C)C)NC(=O)[C@H](Cc2cccc(Cl)c2)NC(=O)[C@H](CC(=O)O)NC(=O)[C@H](Cc2ccc(C(=O)O)cc2)NC(=O)[C@H](CN)NC(=O)CSC[C@@H](C(=O)N[C@@H](C)C(N)=O)NC(=O)[C@H]([C@@H](C)O)NC(=O)[C@H](C(C)C)NC1=O` [Compound 1459] ({CH2CO}-[Dap][Phe(4-COOH)]D[Phe(3-Cl)]V[Bip]R[NMeA][dL][Dab]LVTCA-NH2; thioether N-14), the IC50 is 0.04 µM.
As to `Cc1cccc2c(CC3NC(=O)[C@H](CC(=O)O)NC(=O)[C@H](Cc4ccc(O)cc4)NC(=O)[C@H](Cc4ccccc4)NC(=O)CSC[C@@H](C(=O)N[C@@H](C)C(N)=O)NC(=O)[C@H]([C@@H](C)O)NC(=O)[C@H](C(C)C)NC(=O)[C@H](CC(C)C)NC(=O)[C@H](CCCNC(=N)N)NC(=O)[C@@H](CC(C)C)NC(=O)[C@H](C)N(C)C(=O)[C@H](CCCNC(=N)N)NC(=O)[C@H](Cc4ccc(-c5ccccc5)cc4)NC(=O)[C@H](C(C)C)NC3=O)n[nH]c12` (mixture of isomers) [Compound 1105], the IC50 was determined as 0.87 µM.
With `CC(C)C[C@@H]1NC(=O)CSC[C@@H](C(=O)N[C@@H](C)C(N)=O)NC(=O)[C@H]([C@@H](C)O)NC(=O)[C@H](C(C)C)NC(=O)[C@H](CC(C)C)NC(=O)[C@H](CCCNC(=N)N)NC(=O)[C@@H](CC(C)C)NC(=O)[C@H](C)N(C)C(=O)[C@H](CCCNC(=N)N)NC(=O)[C@H](Cc2ccc(-c3ccccc3)cc2)NC(=O)[C@H](C(C)C)NC(=O)[C@H](Cc2c[nH]c3ccccc23)NC(=O)[C@H](CC(=O)O)NC(=O)[C@H](Cc2ccc(O)cc2)NC1=O` [Compound 1050] ({CH2CO}-LYDWV[Bip]R[NMeA][dL]RLVTCA-NH2; thioether N-14), the IC50 was 0.11 µM.
The figure for `Cc1cccc(C[C@@H]2NC(=O)[C@H](CC(=O)O)NC(=O)[C@H](Cc3ccc(OCC(=O)O)cc3)NC(=O)[C@H]([C@@H](C)O)NC(=O)CSC[C@@H](C(N)=O)NC(=O)[C@H](CCC(=O)O)NC(=O)[C@H](C(C)C)NC(=O)[C@H](CC3CCCCC3)NC(=O)[C@H](CCN)NC(=O)[C@@H](CC(C)C)NC(=O)[C@H](C)N(C)C(=O)[C@H](Cc3ccc(OCC(=O)O)cc3)NC(=O)[C@H](Cc3ccc(-c4ccccc4)cc3)NC(=O)[C@H](Cc3ccc(OCC(=O)O)cc3)NC2=O)c1` [Compound 1673] ({CH2CO}-TY(Carboxymethyl)D[Phe(3-Me)]Y(Carboxymethyl)[Bip]Y(Carboxymethyl)[NMeA][dL][Dab][Cha]VEC-NH2; thioether N-14) is 0.09 µM.
